Counter-ions that a name gives are not always drawn. Like-named read-outs stand apart in the source and are kept apart here.
Target: T1, human AspH (His6-AspH315–758) (Homo sapiens, UniProt Q12797)
T1 construct: N-Terminally His6-tagged human AspH315–758 (His6-AspH315–758) was produced in Escherichia coli BL21 (DE3) cells; made in house; host or cells: Escherichia coli BL21 (DE3), pET-28a(+) vector
T1 sequence (Q12797 315-758): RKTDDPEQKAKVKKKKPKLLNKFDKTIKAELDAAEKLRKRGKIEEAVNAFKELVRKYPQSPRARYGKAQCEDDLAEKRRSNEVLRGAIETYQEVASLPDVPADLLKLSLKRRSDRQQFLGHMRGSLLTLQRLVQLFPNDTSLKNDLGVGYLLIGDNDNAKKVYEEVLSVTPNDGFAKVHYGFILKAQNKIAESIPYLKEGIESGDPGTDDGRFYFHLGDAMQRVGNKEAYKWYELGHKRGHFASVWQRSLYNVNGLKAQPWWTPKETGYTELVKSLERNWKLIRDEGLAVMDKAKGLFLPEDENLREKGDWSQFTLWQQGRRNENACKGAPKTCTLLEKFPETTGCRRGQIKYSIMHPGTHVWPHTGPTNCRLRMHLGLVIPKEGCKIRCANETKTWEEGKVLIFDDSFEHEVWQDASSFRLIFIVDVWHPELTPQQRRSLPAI
Test: SPE-MS AspH inhibition assay (hFX-CP101-119 substrate hydroxylation)
Type: biochemical
Conditions: for Plate 1 (% inhibition): 384-well Plate 1

[1] = AspH-inhibitor screening, 384-well Plate 1, substrate conversion
[2] = AspH-inhibitor screening, Plate 1-duplicate
[3] = AspH-inhibitor screening, Plate 1-duplicate, substrate conversion

Row | Compound | Plate 1 (% inhibition) (AspH-inhibitor screening) | Plate 1 (% conversion) [1] | Plate 1-duplicate (% inhibition) [2] | Plate 1-duplicate (% conversion) [3] | further results
1 | Cn1cncc1[C@@](N)(c1ccc(Cl)cc1)c1ccc2c(c1)c(-c1cccc(Cl)c1)cc(=O)n2C [Tipifarnib (Zarnestra)] | -67.01% | 80.70% | -61.42% | 82.50% | 
2 | CCC1(c2ccc(N)cc2)CCC(=O)NC1=O (stereo not drawn) [Aminoglutethimide] | 11.22% | 44.57% | 9.40% | 47.38% | 
3 | C=C(c1ccc(C(=O)O)cc1)c1cc2c(cc1C)C(C)(C)CCC2(C)C [Bexarotene] | -5.40% | 52.24% | -0.39% | 52.24% | 
4 | C[C@H]1C[C@@H]2[C@H]([C@@H](O)C[C@@]3(C)[C@H]2CC[C@]3(O)C(=O)CO)[C@@]2(C)C=CC(=O)C=C12 [Methylprednisolone] | 8.67% | 45.75% | 6.32% | 48.91% | 
5 | CNC(=O)c1ccc(N2C(=S)N(c3ccc(C#N)c(C(F)(F)F)c3)C(=O)C2(C)C)cc1F [Enzalutamide] | -2.61% | 50.95% | -6.89% | 55.46% | 
6 | AT 101 | 102.80% | 2.28% | 99.60% | 2.64% | 
7 | CC[C@@]1(O)C(=O)OCc2c1cc1n(c2=O)Cc2cc3c(CN(C)C)c(O)ccc3nc2-1 [Topotecan hydrochloride] | 4.87% | 47.50% | 6.81% | 48.66% | 
8 | Cc1ccc(F)c(NC(=O)Nc2ccc(-c3cccc4[nH]nc(N)c34)cc2)c1 [ABT-869_Linifanib] | 24.64% | 38.37% | 34.65% | 34.86% | 
9 | O=[N+]([O-])c1ccc2c(c1)S(=O)(=O)C=C2 [Stattic] | 9.52% | 45.35% | 9.59% | 47.29% | 
10 | Cc1ccc(C(=O)Nc2ccc(CN3CCN(C)CC3)c(C(F)(F)F)c2)cc1C#Cc1cnc2cccnn12 [AP24534 (Ponatinib)] | -64.76% | 79.66% | -35.27% | 69.54% | 
11 | C[C@]12C=CC(=O)C=C1CC[C@@H]1[C@@H]2[C@@H](O)C[C@@]2(C)[C@H]1CC[C@]2(O)C(=O)CO [Prednisolone] | 19.12% |  | 12.03% |  | Plate 1 (% conversion): 40.92%; Plate 1-duplicate (% conversion): 46.08%
12 | CC(=O)O[C@H]1C(=O)[C@@]2(C)[C@H]([C@H](OC(=O)c3ccccc3)[C@]3(O)C[C@H](OC(=O)[C@H](O)[C@@H](NC(=O)c4ccccc4)c4ccccc4)C(C)=C1C3(C)C)[C@]1(OC(C)=O)CO[C@@H]1C[C@@H]2O [Paclitaxel] | 6.60% | 46.70% | -2.08% | 53.08% | 
13 | CO[C@H]1/C=C\C=C(/C)C(=O)NC2=CC(=O)C(NCCN(C)C)=C(C[C@@H](C)C[C@H](OC)[C@H](O)[C@@H](C)/C=C(\C)[C@@H]1OC(N)=O)C2=O [17-DMAG (Alvespimycin)] | -4.95% | 52.04% | -6.36% | 55.19% | 
14 | COc1cc(Nc2c(C#N)cnc3cc(OCCCN4CCN(C)CC4)c(OC)cc23)c(Cl)cc1Cl [Bosutinib] | -48.53% | 72.16% | -50.33% | 77.00% | 
15 | CCCCC(=O)OCC(=O)[C@]1(O)Cc2c(O)c3c(c(O)c2[C@@H](O[C@H]2C[C@H](NC(=O)C(F)(F)F)[C@H](O)[C@H](C)O2)C1)C(=O)c1c(OC)cccc1C3=O [Valrubicin] | -2.24% | 50.79% | -16.67% | 60.31% | 
16 | CNNCc1ccc(C(=O)NC(C)C)cc1 [Procarbazine hydrochloride] | 0.24% | 49.64% | 5.52% | 49.30% | 

Row | Compound | Plate 1 (% inhibition) (AspH-inhibitor screening) | Plate 1 (% conversion) [1] | Plate 1-duplicate (% inhibition) [2] | Plate 1-duplicate (% conversion) [3] | further results
17 | Nc1nc(Cl)nc2c1ncn2[C@H]1C[C@H](O)[C@@H](CO)O1 [Cladribine] | 3.47% | 48.15% | 3.70% | 50.21% | 
18 | COc1c/c(=C2\C=c3ccccc3=N2)[nH]/c1=C\c1[nH]c(C)cc1C.CS(=O)(=O)O [Obatoclax, reference compound] |  |  |  |  | IC50 (50 nM His6-AspH315–758, 1 μM hFX-CP101–119, 100 μM LAA, 3 μM 2OG, 2 μM FAS, 50 mM HEPES pH 7.5, 20 °C, read-out: IC50): 13.2 ± 3.1 µM; remaining activity at 20 µM (20 μM fixed inhibitor concentration): ~20%; Hill coefficient of AspH inhibition curves (dose-response curves of SPE-MS AspH inhibition assay): < -2.0; IC50 (read-out: IC50 at 10 μM substrate, 10 μM hFX-CP101–119 and 10 μM 2OG instead of 1 μM hFX-CP101–119 and 3 μM 2OG): 9.44 ± 3.16 µM; IC50 (read-out: IC50 at 20 μM Fe(II), 20 μM Fe(II) instead of 2 μM Fe(II)): 11.9 ± 0.8 µM; IC50 (read-out: IC50 at 200 μM 2OG, 200 μM 2OG instead of 3 μM 2OG): 16.4 ± 4.6 µM
19 | COCCn1c2c([n+](Cc3cnccn3)c1C)C(=O)c1ccccc1C2=O [YM155] | -27.18% | 62.30% | -43.09% | 73.41% | 
20 | COc1cccc2c1C(=O)c1c(O)c3c(c(O)c1C2=O)C[C@@](O)(C(=O)CO)C[C@@H]3O[C@H]1C[C@H](N)[C@H](O)[C@H](C)O1 [Doxorubicin] | -11.25% | 54.95% | -1.25% | 52.66% | 
21 | C[C@]1(c2nc3c(C(N)=O)cccc3[nH]2)CCCN1 [ABT-888 (Veliparib)] | 6.01% | 46.97% | 4.15% | 49.98% | 
22 | O=C(/C=C/c1cccc(S(=O)(=O)Nc2ccccc2)c1)NO [Belinostat (PXD101)] | 97.27% | 4.83% | 96.98% | 3.94% | 
23 | O=NN(CCCl)C(=O)NC1CCCCC1 [Lomustine] | 9.88% | 45.19% | 8.61% | 47.77% | 
24 | CCN1CCN(c2ccc(Nc3cc(N(C)C(=O)Nc4c(Cl)c(OC)cc(OC)c4Cl)ncn3)cc2)CC1 [NVP-BGJ398] | -4.10% | 51.64% | -20.49% | 62.20% | 
25 | CO[C@H]1C[C@@H]2CC[C@@H](C)[C@@](O)(O2)C(=O)C(=O)N2CCCC[C@H]2C(=O)O[C@H]([C@H](C)C[C@@H]2CC[C@@H](OP(C)(C)=O)[C@H](OC)C2)CC(=O)[C@H](C)/C=C(\C)[C@@H](O)[C@@H](OC)C(=O)[C@H](C)C[C@H](C)/C=C/C=C/C=C/1C [Ridaforolimus] | 16.02% | 42.35% | 8.84% | 47.66% | 
26 | CC1(C)CNc2cc(NC(=O)c3cccnc3NCc3ccncc3)ccc21.O=P(O)(O)O.O=P(O)(O)O [Motesanib Diphosphate (AMG-706)] | 35.35% | 33.43% | 26.44% | 38.93% | 
27 | CC(=O)Nc1cccc(-n2c(=O)n(C3CC3)c(=O)c3c(Nc4ccc(I)cc4F)n(C)c(=O)c(C)c32)c1 [GSK1120212_Trametinib] | -0.37% | 49.92% | -2.41% | 53.24% | 
28 | N#CC[C@H](C1CCCC1)n1cc(-c2ncnc3[nH]ccc23)cn1 [INCB018424 (free base, Ruxolitinib)] | 4.31% | 47.76% | 3.98% | 50.07% | 
29 | CC(=O)[C@]1(O)Cc2c(O)c3c(c(O)c2[C@@H](O[C@H]2C[C@H](N)[C@H](O)[C@H](C)O2)C1)C(=O)c1ccccc1C3=O [Idarubicin HCl] | 6.62% | 46.69% | 5.28% | 49.42% | 
30 | CN(C)c1nc(N(C)C)nc(N(C)C)n1 [Altretamine] | 3.32% | 48.22% | 13.59% | 45.30% | 
31 | O=C1c2c(O)ccc(O)c2C(=O)c2c(NCCNCCO)ccc(NCCNCCO)c21 [Mitoxantrone] | -29.89% | 63.55% | -22.19% | 63.05% | 

From PMC7588595, “Small-molecule active pharmaceutical ingredients of approved cancer therapeutics inhibit human aspartate/asparagine-β-hydroxylase” (Bioorganic & Medicinal Chemistry, 2020)
